Target: α-amylase
Assay: α-amylase inhibition, starch/DNSA colorimetric assay at […] nm
Format: biochemical

α-Amylase inhibition method IC50 value [µg/mL] | SMILES
200.94 | Cc1ccc(-c2nn(C(=O)c3ccncc3)cc2C(=O)O)cc1 [MPP, 3-(4-methylphenyl)-1-(pyridine-4-carbonyl)-1H-pyrazole-4-carboxylic acid]
122.17 | O=C(O)c1cn(C(=O)c2ccncc2)nc1-c1ccccc1 [PPP, 3-phenyl-1-(pyridine-4-carbonyl)-1H-pyrazole-4-carboxylic acid]
